Measured values taken from PubChem BioAssay AID330 (DTP/NCI, 2004).
“And” between values parts separate entries of the source, which are not always exact repeats. Equal values may be shown once. Toxic doses and inconclusive results are not listed.

Tested on: P388 leukemia ip, CD2F1 mice, survival T/C
Assay: NCI In Vivo Anticancer Drug Screen. Data for tumor model P388 Leukemia (intraperitoneal) in CD2F1 (CDF1) mice
Conditions: endpoint: median survival time, higher = longer survival
Outline: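 Mice carrying the transplanted tumor received test compound or vehicle. Survival was recorded in each group, and the value is the treated-group measurement divided by that of the vehicle-treated control group.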

[1] = dose: 25.0 mg/kg/injection, schedule: Q01DX009 (ip), vehicle: other
[2] = dose: 50.0 mg/kg/injection, schedule: Q01DX009 (ip), vehicle: other
[3] = dose: 100.0 mg/kg/injection, schedule: Q01DX009 (ip), vehicle: other
[4] = dose: 50.0 mg/kg/injection, schedule: Q01DX005 (ip), vehicle: Klucel (hydroxypropylcellulose) (HPC)
[5] = dose: 100.0 mg/kg/injection, schedule: Q01DX005 (ip), vehicle: Klucel (hydroxypropylcellulose) (HPC)
[6] = dose: 200.0 mg/kg/injection, schedule: Q01DX005 (ip), vehicle: Klucel (hydroxypropylcellulose) (HPC)
[7] = dose: 200.0 mg/kg/injection, schedule: Q01DX001 (ip), vehicle: saline
[8] = dose: 50.0 mg/kg/injection, schedule: Q01DX005 (ip), vehicle: saline with Tween-80
[9] = dose: 100.0 mg/kg/injection, schedule: Q01DX005 (ip), vehicle: saline with Tween-80
[10] = dose: 50.0 mg/kg/injection, schedule: Q01DX009 (ip), vehicle: saline with Tween-80
[11] = dose: 100.0 mg/kg/injection, schedule: Q01DX009 (ip), vehicle: saline with Tween-80
[12] = dose: 200.0 mg/kg/injection, schedule: Q01DX009 (ip), vehicle: saline with Tween-80
[13] = dose: 50.0 mg/kg/injection, schedule: Q01DX009 (ip), vehicle: Klucel (hydroxypropylcellulose) (HPC)
[14] = dose: 100.0 mg/kg/injection, schedule: Q01DX009 (ip), vehicle: Klucel (hydroxypropylcellulose) (HPC)
[15] = dose: 200.0 mg/kg/injection, schedule: Q01DX009 (ip), vehicle: Klucel (hydroxypropylcellulose) (HPC)

For `N#CCc1[nH]nc2ncnc(N)c12`, the T/C (dose: 6.25 mg/kg/injection, schedule: Q01DX009 (ip), vehicle: other) was 102 % of control, the T/C (dose: 12.5 mg/kg/injection, schedule: Q01DX009 (ip), vehicle: other) was 103 % of control and the T/C [1] was 97 % of control. The T/C [2] was 97 % of control and the T/C [3] was 105 % of control.
`O=C1NS(=O)(=O)Oc2ccccc2O1` was tested, and the T/C [4] was 107 % of control, the T/C [5] was 100 % of control and the T/C [6] was 95 % of control.
`Cn1[nH]c(C(C)(C)O)cc1=O` was tested, and the T/C (dose: 100.0 mg/kg/injection, schedule: Q01DX001 (ip), vehicle: saline) was 107 % of control, the T/C [7] was 97 % of control and the T/C (dose: 400.0 mg/kg/injection, schedule: Q01DX001 (ip), vehicle: saline) was 101 % of control.
`COc1ccc2c(c1)OCCN(C)OC2c1cccc(Cl)c1` (stereo not given) was tested, and the T/C [8] was 107 % of control, the T/C [9] was 99 % of control and the T/C (dose: 200.0 mg/kg/injection, schedule: Q01DX005 (ip), vehicle: saline with Tween-80) was 92 % of control.
With `COc1cccc2c1C(=O)c1c(O)c3c(c(O)c1C2=O)C[C@@](O)(C(O)CO)C[C@@H]3OC1CC(N)C(O)C(C)O1` (stereo not given in full) the T/C (dose: 0.78 mg/kg/injection, schedule: Q01DX009 (ip), vehicle: water) was 155 % of control and 150 % of control, the T/C (dose: 1.56 mg/kg/injection, schedule: Q01DX009 (ip), vehicle: water) was 174 % of control and 168 % of control and the T/C (dose: 2.0 mg/kg/injection, schedule: Q01DX009 (ip), vehicle: water) was 183 % of control. The T/C (dose: 3.13 mg/kg/injection, schedule: Q01DX009 (ip), vehicle: water) was 192 % of control and 200 % of control, the T/C (dose: 4.0 mg/kg/injection, schedule: Q01DX009 (ip), vehicle: water) was 211 % of control and the T/C (dose: 6.25 mg/kg/injection, schedule: Q01DX009 (ip), vehicle: water) was 260 % of control and 197 % of control and 264 % of control. The T/C (dose: 6.25 mg/kg/injection, schedule: Q04DX003 (ip), vehicle: water) was 116 % of control, the T/C (dose: 8.0 mg/kg/injection, schedule: Q01DX009 (ip), vehicle: water) was 266 % of control and the T/C (dose: 12.5 mg/kg/injection, schedule: Q01DX009 (ip), vehicle: water) was 95 % of control. The T/C (dose: 16.0 mg/kg/injection, schedule: Q01DX009 (ip), vehicle: water) was 94 % of control, the T/C (dose: 25.0 mg/kg/injection, schedule: Q04DX003 (ip), vehicle: water) was 198 % of control and the T/C (dose: 50.0 mg/kg/injection, schedule: Q04DX003 (ip), vehicle: water) was 172 % of control.
`O=[N+]([O-])c1cc2[nH]cnc2c([N+](=O)[O-])c1N1CCCCC1` was tested, and the T/C (dose: 25.0 mg/kg/injection, schedule: Q04DX003 (ip), vehicle: saline with Tween-80) was 92 % of control, the T/C (dose: 50.0 mg/kg/injection, schedule: Q04DX003 (ip), vehicle: saline with Tween-80) was 92 % of control and the T/C (dose: 100.0 mg/kg/injection, schedule: Q04DX003 (ip), vehicle: saline with Tween-80) was 100 % of control.
In the case of `CN1c2ccccc2S(=O)(=O)n2c(-c3ccccc3Cl)nnc21`, the T/C (dose: 25.0 mg/kg/injection, schedule: Q01DX001 (ip), vehicle: saline with Tween-80) is reported as 97 % of control, the T/C (dose: 50.0 mg/kg/injection, schedule: Q01DX001 (ip), vehicle: saline with Tween-80) is reported as 96 % of control and the T/C (dose: 100.0 mg/kg/injection, schedule: Q01DX001 (ip), vehicle: saline with Tween-80) is reported as 100 % of control and 95 % of control. The T/C (dose: 400.0 mg/kg/injection, schedule: Q01DX001 (ip), vehicle: saline with Tween-80) was 90 % of control.
With `Cc1cccc(C)c1NC(=S)NC(=O)c1ccccc1` the T/C [10] was 100 % of control, the T/C [11] was 98 % of control and the T/C [12] was 100 % of control.
With `Oc1cc2c(cc1C(c1ccc(Cl)cc1)N1CCOCC1)OCO2` (stereo not given) the T/C (dose: 60.0 mg/kg/injection, schedule: Q01DX005 (ip), vehicle: saline with Tween-80) was 102 % of control, the T/C (dose: 120.0 mg/kg/injection, schedule: Q01DX005 (ip), vehicle: saline with Tween-80) was 111 % of control and the T/C (dose: 240.0 mg/kg/injection, schedule: Q01DX005 (ip), vehicle: saline with Tween-80) was 124 % of control.
For `COC1c2cc3ccccc3nc2-c2ccccc2C1(C)C` (stereo not given), the T/C [1] was 99 % of control, the T/C [2] was 96 % of control and the T/C [3] was 93 % of control. For the same compound, the T/C (dose: 200.0 mg/kg/injection, schedule: Q01DX009 (ip), vehicle: other) was 89 % of control and the T/C (dose: 400.0 mg/kg/injection, schedule: Q01DX009 (ip), vehicle: other) was 89 % of control.
With `Nc1nnc(Cc2ccccc2[N+](=O)[O-])c(=O)[nH]1` the T/C [13] was 113 % of control, the T/C [14] was 115 % of control and the T/C [15] was 105 % of control.
In the case of `OCCCC1CCCCN1` (stereo not given), the T/C (dose: 50.0 mg/kg/injection, schedule: Q01DX001 (ip), vehicle: saline) is reported as 107 % of control and the T/C [7] is reported as 100 % of control.
With `S=C(SCc1ccccc1)N1CCN(C(=S)SCc2ccccc2)CC1` the T/C [10] was 89 % of control, the T/C [11] was 91 % of control and the T/C [12] was 91 % of control.
In the case of `CCn1c2ccccc2c2cc(NS(=O)(=O)c3ccccc3)ccc21`, the T/C [13] is reported as 103 % of control, the T/C [14] is reported as 103 % of control and the T/C [15] is reported as 100 % of control.
In the case of `C=CCC(C(=O)OCCN(CC)CC)(c1ccccc1)c1ccccc1`, the T/C (dose: 0.75 mg/kg/injection, schedule: Q01DX009 (ip), vehicle: saline) is reported as 100 % of control, the T/C (dose: 1.5 mg/kg/injection, schedule: Q01DX009 (ip), vehicle: saline) is reported as 94 % of control and the T/C (dose: 3.0 mg/kg/injection, schedule: Q01DX009 (ip), vehicle: saline) is reported as 100 % of control. For the same compound, the T/C (dose: 6.0 mg/kg/injection, schedule: Q01DX009 (ip), vehicle: saline) was 103 % of control and the T/C (dose: 12.0 mg/kg/injection, schedule: Q01DX009 (ip), vehicle: saline) was 100 % of control.
For `COc1cc2cc(c1Cl)N(C)C(=O)CC(OC(=O)C(C)N(C)C(=O)C(C)C)C1(C)OC1C(C)C1CC(O)(NC(=O)O1)C(OC)/C=C/C=C(C)C2O` (stereo not given), the T/C (dose: 0.02 mg/kg/injection, schedule: Q01DX009 (ip), vehicle: steriod suspending solution) was 168 % of control, the T/C (dose: 0.05 mg/kg/injection, schedule: Q01DX009 (ip), vehicle: steriod suspending solution) was 150 % of control and the T/C (dose: 0.1 mg/kg/injection, schedule: Q01DX009 (ip), vehicle: steriod suspending solution) was 186 % of control. For the same compound, the T/C (dose: 0.2 mg/kg/injection, schedule: Q01DX009 (ip), vehicle: steriod suspending solution) was 213 % of control and the T/C (dose: 32.0 micrograms/kg/injection, schedule: Q01DX009 (ip), vehicle: distilled water + alcohol) was 159 % of control.
For `CCC(C)C(F)C(=O)O` (stereo not given), the T/C [8] was 98 % of control and the T/C [9] was 88 % of control.
In the case of `Cc1cnnc2ccccc12`, the T/C (dose: 12.5 mg/kg/injection, schedule: Q01DX009 (ip), vehicle: saline with Tween-80) is reported as 98 % of control, the T/C (dose: 25.0 mg/kg/injection, schedule: Q01DX009 (ip), vehicle: saline with Tween-80) is reported as 106 % of control and the T/C [10] is reported as 106 % of control.
With `ClCCCN1CCN(CCCCl)CC1` the T/C (dose: 12.5 mg/kg/injection, schedule: Q01DX009 (ip), vehicle: distilled water + alcohol) was 113 % of control, the T/C (dose: 25.0 mg/kg/injection, schedule: Q01DX009 (ip), vehicle: distilled water + alcohol) was 121 % of control and the T/C (dose: 100.0 mg/kg/injection, schedule: Q01DX009 (ip), vehicle: distilled water + alcohol) was 157 % of control and 190 % of control.
In the case of `N=C(N)SCCCC(=O)O`, the T/C (dose: 12.5 mg/kg/injection, schedule: Q01DX009 (ip), vehicle: saline) is reported as 102 % of control, the T/C (dose: 25.0 mg/kg/injection, schedule: Q01DX009 (ip), vehicle: saline) is reported as 120 % of control and the T/C (dose: 50.0 mg/kg/injection, schedule: Q01DX009 (ip), vehicle: saline) is reported as 95 % of control.
`COc1ccc(/C=N\N=C(/[O-])c2ccccc2O)cc1.COc1ccc(/C=N\N=C(/[O-])c2ccccc2O)cc1.[OH3+].[OH3+].[Zn+2]` was tested, and the T/C (dose: 100.0 mg/kg/injection, schedule: Q04DX002 (ip), vehicle: saline with Tween-80) was 100 % of control, the T/C (dose: 200.0 mg/kg/injection, schedule: Q04DX002 (ip), vehicle: saline with Tween-80) was 98 % of control and the T/C (dose: 400.0 mg/kg/injection, schedule: Q04DX002 (ip), vehicle: saline with Tween-80) was 91 % of control.
With `O=C1C2C[C@@H]3c4ccccc4N[C@@H]3N2C(=O)C2CCCN12` (stereo not given in full) the T/C [4] was 97 % of control, the T/C [5] was 102 % of control and the T/C [6] was 94 % of control.
With `CCCCCCC(=O)CC(SCC)c1c(Cl)cccc1Cl` (stereo not given) the T/C [10] was 89 % of control, the T/C [11] was 98 % of control and the T/C [12] was 100 % of control.
